Test results: patent US5814627A, “3, 5-disubstituted and 3, 4, 5-trisubstituted 2-isoxazolines and isoxazoles, process for their preparation and their use as pharmaceuticals” (Hoechst Aktienegesellschaft, priority 1994, dated 1998)
pIC50: −log10 of the molar value. Where a name gives a salt, the structure may show the parent alone.

Legend:
[1] = tested on: adjuvant/arthritis model; assay: Test 6: antiarthritic effect in the adjuvant/arthritis model; format: in vivo, rat (Wistar-Lewis); details: Rattus norvegicus, po, 408 h, daily for 17 days, rat, read-out: Test 6 Paw volume (% inhibition); for inhibition in vivo at 25 mg/kg: 25 mg/kg orally; for inhibition in vivo at 50 mg/kg: 50 mg/kg orally
Protocol: Male rats of a Wistar-Lewis strain (Mollegaard/Denmark) were used as experimental animals. The body weight is between 160 and 200 g. Subplantar injection of 0.1 ml of Freund's adjuvant (=6 mg of Mycobacterium butyricum suspension, Difco Lab./Detroit, Mich. USA, per ml of heavy white paraffin oil, Merck, Darmstadt) into the root of the tail resulted, on the 10th to 14th day of the experiment, in immunopathological processes and chronic inflammations, particularly in the form of arthritic and periarthritic symptoms, at other sites in the body (secondary lesions). The animals were fed ad libitum with the standard feed Altromin-R, from Altrogge, Lage, and provided with tap water. The animals were given 60 mg of codein per kg as an analgesic from the 14th day to the end of the experiment. The test substances were administered orally as a CMC suspension, in an injection volume of 1 ml/100 g of body weight, on each day (in all for 17 days), beginning on the day of the adjuvant administration. The volumes of each of the hind paws, and the body weight, were measured on the first and on the 18th day of the experiment. Diminution in the increase of paw volume, as compared with the untreated control group, served as the criterion of activity, with the two hind paws being averaged.

[2] = tested on: PAF-induced asthma attack; assay: Test 7: antiasthmatic effect, PAF-induced asthma attack; format: in vivo; details: Cavia porcellus; i.d., 15 minutes before PAF; guinea pig
Protocol: Test 7: Testing for antiasthmatic effect
Anesthetized guinea pigs, which were cannulated in the jugular vein to allow injection of the PAF, were used for testing for antiasthmatic effect. The test preparations were also administered intravenously (i.v.), 5 min before PAF administration, into the blood stream through the same venous cannula, or else administered intraduodenally (i.d.), 15 minutes before the PAF, through an opening in the duodenum which had been installed and cannulated surgically. The bronchial width was recorded in an overflow pneumonogram before and after administering the preparation. Evaluation: ED50 in mg/kg i.d. as compared with the PAF-induced asthma attack.

[3] = tested on: cyclooxygenase-dependent thrombocyte aggregation; assay: Test 5: Cyclooxygenase-dependent thrombocyte aggregation; format: cell-based, human; details: Homo sapiens, arachidonic acid as inducer, read-out: Test 5 residual activity (cyclooxygenase-dependent thrombocyte aggregation), percent of control
Protocol: TEST 5. Cyclooxygenase-dependent thrombocyte aggregation
Platelet-rich plasma (PRP): to inhibit coagulation, human blood was treated with 1/10 of its volume of 3.8% sodium citrate solution. Centrifugation then takes place at 105×g for 20 minutes and the supernatant (PRP) is removed. 200 μl of PRP were preincubated, at 37° C. for 10 minutes, together with 30 μl of test substance in a PAP4 aggregometer (BioData). The test substance was dissolved in organic solvent and diluted 1:30 with buffer (50 mM TisHCl, pH 8.0; 90 mM NaCl). Aggregation is triggered with 20 μl of inducer. During the aggregation, stirring takes place at 800 rpm. Arachidonic acid, 5 mg/ml, was used as the inducer.
(§1) The values in the table show the concentration of the test substance which was employed in μM and, besides this, the residual activity measured in percent based on the control, which was set to be 100%. The interleukin is additionally indicated in test 4.

[4] = tested on: tumor cell line 20-10-5S (hybridoma cell line); assay: Test 8: Inhibition of tumor cell proliferation; format: cell-based; details: 48 h + 16 h tritiated thymidine incorporation; 20-10-5S cells
[5] = tested on: leukotriene B4 synthesis in white blood cells; assay: Test 3: LTB4 formation by white blood cells; format: cell-based; details: Homo sapiens, read-out: Test 3 residual activity (LTB4 formation), percent of control
Protocol: TEST 3. LTB4 formation by white blood cells
Isolation of white blood cells:
40 ml of human blood were mixed with 8 ml of 6% dextran solution (dextran, mw: 480,000 in PM16). After one hour at room temperature, the supernatant,which was composed of white blood cells, was removed, diluted with an equal volume of PM16, and centrifuged for 15 minutes at 300×g (1600 rpm). The sediment was next resuspended in approximately 5-6 ml of PM16 and, once the cell count had been determined in a Coulter Counter, adjusted to 10^7 cells/ml.
The test mixture comprised 0.24 ml of cell suspension, 0.03 ml of 20 mM CaCl2 /5 mM MgCl2 and 5 μl of test substance. Following 15 minutes of preincubation at 37° C., the reaction was started with 0.03 ml of A23187/glutathione (100 μg of A23187/ml; 15.4 μg of glutathione/ml). The incubation was terminated after 5 minutes at 37° C. by immediate cooling of the samples down to 0° C. After centrifuging for 2 minutes in an Eppendorff Centrifuge (0° C.), the supernatant was removed and examined chromatographically.
High pressure liquid chromatography (HPLC): the HPLC equipment comprises a Kratos pump (Spectro-flow 400), a cooled automatic BT 7041 sample injector (Biotronik) having a 75 μl sample loop, a Nucleosil C18 column (100*3 mm, 5 μm particles of Chrompack), a UV detector (Kratos) Spectroflow 757 (wavelength: 280 nm, measurement range: 0.1 AUFS, time constant: 0.5 s) and a Spectra Physics integrator (SP 4270). The eluent (725 ml of methanol, 275 ml of water and 0.1 ml of acetic acid) was supplied at a flow rate of 0.7 ml/minute and at a pressure of about 100 bar.
When doing this, the measurement range which has been set can be examined and altered if necessary. It is also vital to measure the test substances at the particular test concentration (e.g.: 10^-5 M) in PM16 before the cell incubation, since the test substances might conceal the LTB4 peak. If this is the case, a lower concentration must be selected.
as §1

[6] = tested on: polymorphonuclear leucocytes (PMNL); assay: Test 2: Release of oxygen radicals from human PMNL; format: cell-based; details: read-out: Test 2 residual activity (release of oxygen radicals), percent of control
Protocol: Isolation of polymorphonuclear leucocytes (PMNL) from human peripheral blood for carrying out tests 1 and 2 10 ml of human blood were diluted with 10 ml of HBSS (Serva) and underlaid with 15 ml of Lymphoprep (Dr. Molter GmbH, Heidelberg). The sample was then centrifuged for 25 minutes at 400×g (1600 revolutions per minute, Minifuge 2, Heraeus, Osterode). […] A white ring, composed of mononuclear cells, is located between these two phases. The lowermost phase is composed of erythrocytes which are covered with a white layer of PMNL. The uppermost phase, and also the Lymphoprep and the white ring, were carefully removed using a syringe. The remaining sediment was carefully resuspended in 15 ml of 3% dextran in PM16 (mw: 485,000, Sigma, Deisenhofen). The suspension was then left to stand at room temperature for one hour. During this time, the erythrocytes sedimented while the PMNL remained in the supernatant. The supernatant was removed, diluted with an approximately equal volume of PM16, and centrifuged for 15 minutes at 400×g. Should the PMNL sediment be heavily contaminated with erythrocytes, it is necessary to carry out a hypotonic lysis. To do this, the sediment was resuspended in 750 μl of water. After exactly 15 seconds, the suspension was diluted with approximately 7 ml of PM16 and centrifuged for 10 minutes at 400×g. If necessary, this lysis was repeated once more. Otherwise, the PMNL sediment was resuspended in a suitable medium.
The PMNL were resuspended (5·10^6 cells/ml) in Dulbecco's PBS, supplemented with 7.5 mM glucose. Care must be taken to ensure that the PMNL are free of erythrocytes. 100 μl of PMNL, 700 μl of PBS+glucose and 100 μl of cytochrome C (9.38 mg/ml of PBS+glucose) were mixed in a semi-microcuvette. 100 μl of PMNL, 500 μl of PBS+glucose, 100 μl of cytochalasin B ([…]), 100 μl of TNF (0.05 ng) and 100 μl of cytochrome C (9.38 mg/ml of PBS+glucose) were mixed for the fMLP-induced release of oxygen. Measurements were made in a double-beam photometer meter (Perkin-Elmer 552 S) at a wavelength of 550 nm. The measurement range is 0-1 extinction units. The cuvettes were temperature-equilibrated to 37° C. The reference cuvette additionally contained 10 μl of SOD (6 mg of SOD/ml of PBS+glucose). Following a preincubation of 5 minutes, the reaction is started with 100 μl of inducer. The reaction is started with 1·10^-7 mol of fMLP.
as §1

Work on `C[C@H](O)[C@@H]1CC(c2cc(C(C)(C)C)c(O)c(C(C)(C)C)c2)=NO1` (relative stereo) [Example 20] yielded an inhibition in vivo at 25 mg/kg [1] of 67%, an ED50 [2] of about 50 mg/kg and an activity at 10 µM [3] of 100%. For the same compound, the pIC50 [4] was over 5.30.

`CC(C)(C)c1cc(C2=NOC(CO)C2)cc(C(C)(C)C)c1O` (stereo not shown) [Example 1, 3-(4-Hydroxy-3,5-di-tert-butylphenyl)-5-hydroxymethyl-2-isoxazoline] was tested, and the inhibition in vivo at 50 mg/kg [1] was 70%, the ED50 [2] was 10 to 50 mg/kg and the activity at 10 µM [5] was 92%. It also gave an activity at 10 µM [3] of 93% and a pIC50 [4] of 5.00 to 5.30.

`COP(=O)(OC)C1CC(c2cc(C(C)(C)C)c(O)c(C(C)(C)C)c2)=NO1` (stereo not shown) [Example 5] gave an ED50 [2] of under 10 mg/kg and an activity at 100 µM [3] of 98%.

`CC(C)(C)c1cc(C2=NOC(P(=O)(O)O)C2)cc(C(C)(C)C)c1O` (stereo not shown) [Example 6, 3-(4-Hydroxy-3,5-di-tert-butylphenyl)-2-isoxazolin-5-ylphosphonic acid] showed an ED50 [2] of about 50 mg/kg.

Compound `COP(=O)(O)C1CC(c2cc(C(C)(C)C)c(O)c(C(C)(C)C)c2)=NO1` (stereo not shown) [Example 7, Monomethyl 3-(4-hydroxy-3,5-di-tert-butylphenyl)-2-isoxazolin-5-ylphosphonate] has an ED50 [2] of 10 to 30 mg/kg and an activity at 100 µM [3] of 95%.

With `CC(C)(C)c1cc(C2=NOC(c3ccsc3)C2)cc(C(C)(C)C)c1O` (stereo not shown) [Example 8] the inhibition in vivo at 50 mg/kg [1] was 67%, the ED50 [2] was about 10 mg/kg and the activity at 1 µM ([5]; 1 μM) was 93%. It also gave an activity at 10 µM [5] of 15%, an activity at 100 µM [3] of 91% and a pIC50 [4] of over 5.30.

`Cc1cc(CNC(=O)C2(C)CC(c3cc(C(C)(C)C)c(O)c(C(C)(C)C)c3)=NO2)cc(C)c1O` (stereo not shown) [Example 14] showed an ED50 [2] of 10 to 50 mg/kg and an activity at 10 µM [3] of 100%.

With `CC(C)(OCc1cc(-c2cc(C(C)(C)C)c(O)c(C(C)(C)C)c2)no1)C(=O)O` [Example 36, 2-(3-(4-Hydroxy-3,5-di-tert-butylphenyl)isoxazol-5-ylmethoxy)-2-methylpropionic acid] the activity at 10 µM [5] was 93% and the activity at 100 µM [3] was 87%.

`CC(C)(C)c1cc(-c2cc(COC(=O)NCC(=O)O)on2)cc(C(C)(C)C)c1O` [Example 40, N-(3-(4-Hydroxy-3,5-di-tert-butylphenyl)isoxazol-5-ylmethoxycarbonyl)glycine] gave an ED50 [2] of 1 to 3 mg/kg and a pIC50 [4] of over 5.30.

`CC(C)(C)c1cc(-c2cc(CCOC(=O)NCC(=O)O)on2)cc(C(C)(C)C)c1O` [Example 43, N-(2-(4-Hydroxy-3,5-di-tert-butylphenyl)isoxazol-5-ylethoxycarbonyl)glycine] was tested, and the activity at 10 µM [5] was 93% and the activity at 100 µM [3] was 99%.

In the case of `CC(C)(C)c1cc(-c2cc(CN)on2)cc(C(C)(C)C)c1O` [Example 48], the inhibition in vivo at 50 mg/kg [1] was 60%, the ED50 [2] was 10 to 50 mg/kg and the pIC50 [4] was 5.00 to 5.30.

`Cc1oncc1C(=O)NCc1cc(-c2cc(C(C)(C)C)c(O)c(C(C)(C)C)c2)no1` [Example 52] showed an ED50 [2] of 3 to 10 mg/kg and a pIC50 [4] of over 5.30.

In the case of `C/C(O)=C(\C#N)C(=O)NCc1cc(-c2cc(C(C)(C)C)c(O)c(C(C)(C)C)c2)no1` [Example 53, 2-Cyano-3-hydroxybut-2-enecarboxylic acid(3-(4-hydroxy-3,5-di-tert-butylphenyl)isoxazol-5-ylmethyl)amide], the inhibition in vivo at 25 mg/kg [1] was 48%, the ED50 [2] was 10 to 50 mg/kg and the pIC50 [4] was 5.00 to 5.10.

`CCOC(=O)CNC(=O)NCc1cc(-c2cc(C(C)(C)C)c(O)c(C(C)(C)C)c2)no1` [Example 54, Ethyl (3-(3-(4-hydroxy-3,5-di-tert-butylphenyl)isoxazol-5-ylmethyl)ureido) acetate] showed an ED50 [2] of 1 to 3 mg/kg and a pIC50 [4] of 5.00 to 5.30.

With `CC(C)(C)c1cc(-c2cc(CNC(=O)NCC(=O)O)on2)cc(C(C)(C)C)c1O` [Example 56, (3-(3-(4-Hydroxy-3,5-di-tert-butylphenyl)isoxazol-5-ylmethyl)ureido)acetic acid] the ED50 [2] was about 50 mg/kg.

`CC(OC(=O)[C@@H](N)Cc1ccccc1)c1cc(-c2cc(C(C)(C)C)c(O)c(C(C)(C)C)c2)no1` (stereo partly drawn) [Example 70, L-Phenylalanine-1-(3-(4-hydroxy-3,5-di-tert-butylphenyl)isoxazol-5-yl)ethylester hydrochloride] gave an inhibition in vivo at 25 mg/kg [1] of 59%, an activity at 10 µM [6] of 22% and a pIC50 [4] of 5.30.

With `CC(OC(=O)[C@@H](N)Cc1ccccc1)C1CC(c2cc(C(C)(C)C)c(O)c(C(C)(C)C)c2)=NO1` (stereo partly drawn) [Example 73, L-Phenylalanine-1-(3-(4-hydroxy-3,5-di-tert-butylphenyl)-2-isoxazolin-5-yl)ethyl ester hydrochloride] the inhibition in vivo at 50 mg/kg [1] was 73%, the activity at 1 µM ([6]; 1 μM) was 100% and the activity at 10 µM [6] was 9%. It also gave an activity at 25 µM ([3]; 25 μM) of 100%.
